Laboratory results as given in patent US4868321A, “Isothiocyanate intermediates” (FMC Corporation, priority 1988, dated 1989).

Columns and labels:
Type in all cases: in vivo
Rice [1] = assay: Preemergence Herbicidal Activity, Rice; conditions: Oryza sativa, pre-emergence; for plant injury at 2000 g/ha: 2.0 kg/ha
Method in brief: (§1)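 Test compounds are dosed on a per-area basis (kg/ha); plant response is reported as % C.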

Field Bindweed [2] = assay: Postemergence Herbicidal Activity, Field Bindweed; conditions: post-emergence; for pest or weed control at 2000 g/ha: 2.0 kg/ha
Method in brief: (§2)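 Herbicide dissolved, usually in 50/50 acetone/water, then applied preemergence or postemergence at a set kg/ha rate. Control assessed as % C.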

Field Bindweed [3] = assay: Preemergence Herbicidal Activity, Field Bindweed; conditions: pre-emergence; for pest or weed control at 2000 g/ha: 2.0 kg/ha
Method in brief: as §2

Soybean [4] = assay: Preemergence Herbicidal Activity, Soybean; conditions: Glycine max, pre-emergence; for plant injury at 2000 g/ha: 2.0 kg/ha
Method in brief: as §1

Velvetleaf [5] = assay: Preemergence Herbicidal Activity, Velvetleaf; conditions: Abutilon theophrasti, pre-emergence; for pest or weed control at 2000 g/ha: 2.0 kg/ha
Method in brief: as §2

Morningglory [6] = assay: Postemergence Herbicidal Activity, Morningglory; conditions: Ipomoea, post-emergence; for pest or weed control at 2000 g/ha: 2.0 kg/ha
Method in brief: as §2

Rice [7] = assay: Postemergence Herbicidal Activity, Rice; conditions: Oryza sativa, post-emergence; for plant injury at 2000 g/ha: 2.0 kg/ha
Method in brief: as §1

Barnyardgrass [8] = assay: Preemergence Herbicidal Activity, Barnyardgrass; conditions: Echinochloa crus-galli, pre-emergence; for pest or weed control at 2000 g/ha: 2.0 kg/ha
Method in brief: (§3)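 Compounds were applied at rates given in kilograms per hectare, and herbicidal effect was scored as percent control.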

Barnyardgrass [9] = assay: Postemergence Herbicidal Activity, Barnyardgrass; conditions: Echinochloa crus-galli, post-emergence; for pest or weed control at 2000 g/ha: 2.0 kg/ha
Method in brief: as §3

Soybean [10] = assay: Postemergence Herbicidal Activity, Soybean; conditions: Glycine max, post-emergence; for plant injury at 2000 g/ha: 2.0 kg/ha
Method in brief: as §1

Wheat [11] = assay: Preemergence Herbicidal Activity, Wheat; conditions: Triticum aestivum, pre-emergence; for plant injury at 2000 g/ha: 2.0 kg/ha
Method in brief: as §1

Cotton [12] = assay: Preemergence Herbicidal Activity, Cotton; conditions: Gossypium hirsutum, pre-emergence; for plant injury at 2000 g/ha: 2.0 kg/ha
Method in brief: as §2

Green Foxtail [13] = assay: Postemergence Herbicidal Activity, Green Foxtail; conditions: Setaria viridis, post-emergence; for pest or weed control at 2000 g/ha: 2.0 kg/ha
Method in brief: as §3

Wheat [14] = assay: Postemergence Herbicidal Activity, Wheat; conditions: Triticum aestivum, post-emergence; for plant injury at 2000 g/ha: 2.0 kg/ha
Method in brief: as §1

Cotton [15] = assay: Postemergence Herbicidal Activity, Cotton; conditions: Gossypium hirsutum, post-emergence; for plant injury at 2000 g/ha: 2.0 kg/ha
Method in brief: as §2

Field Corn [16] = assay: Preemergence Herbicidal Activity, Field Corn; conditions: Zea mays, pre-emergence; for plant injury at 2000 g/ha: 2.0 kg/ha
Method in brief: as §1

Green Foxtail [17] = assay: Preemergence Herbicidal Activity, Green Foxtail; conditions: Setaria viridis, pre-emergence; for pest or weed control at 2000 g/ha: 2.0 kg/ha
Method in brief: as §3

Field Corn [18] = assay: Postemergence Herbicidal Activity, Field Corn; conditions: Zea mays, post-emergence; for plant injury at 2000 g/ha: 2.0 kg/ha
Method in brief: as §1

Velvetleaf [19] = assay: Postemergence Herbicidal Activity, Velvetleaf; conditions: Abutilon theophrasti, post-emergence; for pest or weed control at 2000 g/ha: 2.0 kg/ha
Method in brief: as §2

Johnsongrass [20] = assay: Preemergence Herbicidal Activity, Johnsongrass; conditions: Sorghum halepense, pre-emergence; for pest or weed control at 2000 g/ha: 2.0 kg/ha
Method in brief: as §3

Morningglory [21] = assay: Preemergence Herbicidal Activity, Morningglory; conditions: Ipomoea, pre-emergence; for pest or weed control at 2000 g/ha: 2.0 kg/ha
Method in brief: as §2

Johnsongrass [22] = assay: Postemergence Herbicidal Activity, Johnsongrass; conditions: Sorghum halepense, post-emergence; for pest or weed control at 2000 g/ha: 2.0 kg/ha
Method in brief: as §3

`O=c1n(CCCF)nnn1-c1cc(NS(=O)(=O)C(F)(F)F)c(Cl)cc1Cl` [Compound 35, 1-[2,4-Dichloro-5-(N--trifluoromethylsulfonylamino)phenyl]-4,5-dihydro-4-(3-fluoropropyl)-5H--tetrazol-5-one] gave a plant injury at 4000 g/ha (Rice [1]; 4.0 kg/ha) of 95%, a pest or weed control at 4000 g/ha (Field Bindweed [2]; 4.0 kg/ha) of 95% and a pest or weed control at 4000 g/ha (Field Bindweed [3]; 4.0 kg/ha) of 100%. It also gave a plant injury at 4000 g/ha (Soybean [4]; 4.0 kg/ha) of 80%, a pest or weed control at 4000 g/ha (Velvetleaf [5]; 4.0 kg/ha) of 100% and a pest or weed control at 4000 g/ha (Morningglory [6]; 4.0 kg/ha) of 100%. For the same molecule, the plant injury at 4000 g/ha (Rice [7]; 4.0 kg/ha) was 80%, the pest or weed control at 4000 g/ha (Barnyardgrass [8]; 4.0 kg/ha) was 90% and the pest or weed control at 4000 g/ha (Barnyardgrass [9]; 4.0 kg/ha) was 70%. It also gave a plant injury at 4000 g/ha (Soybean [10]; 4.0 kg/ha) of 100%, a plant injury at 4000 g/ha (Wheat [11]; 4.0 kg/ha) of 70% and a plant injury at 4000 g/ha (Cotton [12]; 4.0 kg/ha) of 100%. The pest or weed control at 4000 g/ha (Green Foxtail [13]; 4.0 kg/ha) was 100%, the plant injury at 4000 g/ha (Wheat [14]; 4.0 kg/ha) was 40% and the plant injury at 4000 g/ha (Cotton [15]; 4.0 kg/ha) was 100%. It also gave a plant injury at 4000 g/ha (Field Corn [16]; 4.0 kg/ha) of 50%, a pest or weed control at 4000 g/ha (Green Foxtail [17]; 4.0 kg/ha) of 100% and a plant injury at 4000 g/ha (Field Corn [18]; 4.0 kg/ha) of 70%. It also gave a pest or weed control at 4000 g/ha (Velvetleaf [19]; 4.0 kg/ha) of 100%, a pest or weed control at 4000 g/ha (Johnsongrass [20]; 4.0 kg/ha) of 95% and a pest or weed control at 4000 g/ha (Morningglory [21]; 4.0 kg/ha) of 100%. The pest or weed control at 4000 g/ha (Johnsongrass [22]; 4.0 kg/ha) was 90%.
`CS(=O)(=O)N(c1cc(-n2nnn(CCCF)c2=O)c(Cl)cc1F)S(C)(=O)=O` [Compound 36, 1-[2-Chloro-4-fluoro-5-[bis-(N--methylsulfonyl)amino]phenyl]-4,5-dihydro-4-(3-fluoropropyl)-5H--tetrazol-5-one] showed a plant injury at 2000 g/ha (Rice [1]) of 0%, a pest or weed control at 2000 g/ha (Field Bindweed [2]) of 60% and a pest or weed control at 2000 g/ha (Field Bindweed [3]) of 100%. For the same molecule, the plant injury at 2000 g/ha (Soybean [4]) was 0%, the pest or weed control at 2000 g/ha (Velvetleaf [5]) was 95% and the pest or weed control at 2000 g/ha (Morningglory [6]) was 80%. For the same molecule, the plant injury at 2000 g/ha (Rice [7]) was 10%, the pest or weed control at 2000 g/ha (Barnyardgrass [8]) was 70% and the pest or weed control at 2000 g/ha (Barnyardgrass [9]) was 50%. It also gave a plant injury at 2000 g/ha (Soybean [10]) of 10%, a plant injury at 2000 g/ha (Wheat [11]) of 0% and a plant injury at 2000 g/ha (Cotton [12]) of 70%. For the same molecule, the pest or weed control at 2000 g/ha (Green Foxtail [13]) was 50%, the plant injury at 2000 g/ha (Wheat [14]) was 10% and the plant injury at 2000 g/ha (Cotton [15]) was 70%. It also gave a plant injury at 2000 g/ha (Field Corn [16]) of 70%, a pest or weed control at 2000 g/ha (Green Foxtail [17]) of 50% and a plant injury at 2000 g/ha (Field Corn [18]) of 10%. It also gave a pest or weed control at 2000 g/ha (Velvetleaf [19]) of 90%, a pest or weed control at 2000 g/ha (Johnsongrass [20]) of 40% and a pest or weed control at 2000 g/ha (Morningglory [21]) of 90%. It also gave a pest or weed control at 2000 g/ha (Johnsongrass [22]) of 50%.
`CCS(=O)(=O)N(c1cc(-n2nnn(CCCF)c2=O)c(Cl)cc1F)S(=O)(=O)CC` [Compound 37, 1-[2-Chloro-4-fluoro-5-[bis(N--ethylsulfonyl)amino]phenyl]-4,5-dihydro-4-(3-fluoropropyl)-5H--tetrazol-5-one] was tested, and the plant injury at 2000 g/ha (Rice [1]) was 0%, the pest or weed control at 2000 g/ha (Field Bindweed [2]) was 40% and the pest or weed control at 2000 g/ha (Field Bindweed [3]) was 20%. For the same molecule, the plant injury at 2000 g/ha (Soybean [4]) was 0%, the pest or weed control at 2000 g/ha (Velvetleaf [5]) was 100% and the pest or weed control at 2000 g/ha (Morningglory [6]) was 50%. It also gave a plant injury at 2000 g/ha (Rice [7]) of 20%, a pest or weed control at 2000 g/ha (Barnyardgrass [8]) of 80% and a pest or weed control at 2000 g/ha (Barnyardgrass [9]) of 30%. The plant injury at 2000 g/ha (Soybean [10]) was 40%, the plant injury at 2000 g/ha (Wheat [11]) was 30% and the plant injury at 2000 g/ha (Cotton [12]) was 10%. The pest or weed control at 2000 g/ha (Green Foxtail [13]) was 50%, the plant injury at 2000 g/ha (Wheat [14]) was 20% and the plant injury at 2000 g/ha (Cotton [15]) was 70%. For the same molecule, the plant injury at 2000 g/ha (Field Corn [16]) was 20%, the pest or weed control at 2000 g/ha (Green Foxtail [17]) was 50% and the plant injury at 2000 g/ha (Field Corn [18]) was 20%. It also gave a pest or weed control at 2000 g/ha (Velvetleaf [19]) of 80%, a pest or weed control at 2000 g/ha (Johnsongrass [20]) of 70% and a pest or weed control at 2000 g/ha (Morningglory [21]) of 20%. It also gave a pest or weed control at 2000 g/ha (Johnsongrass [22]) of 20%.
